US7371841B2, “Methods of modulating cold sensory perception” (Regents of the University of California, priority 2002, dated 2008)
Read-outs that look alike come from different tables or passages of the source. Each block holds one compound with its values, some of them ahead of it.

Tests used:
CMR1 [1] = biological target: T1, CMR1 (Rattus norvegicus, UniProt Q8R455, N449H); experiment: Whole-cell patch-clamp of CMR1-transfected HEK293 cells; type: cell-based; parameters: open reading frame of 3312 bp that is predicted to encode a protein of 1104 amino acids; expressed in transfected cells
Protocol: Trigeminal neurons responding to […] menthol with an increase in intracellular Ca2+ were selected for patch-clamp recordings. HEK293 cells were cultured in DMEM with 10% fetal bovine serum and co-transfected (Lipofectamine 2000, Invitrogen) with 1 μg CMR1 plasmid and 0.1 μg enhanced green fluorescence reporter plasmid to identify transfected cells. Cells were plated onto PLO-coated coverslips the next day and examined two days after transfection. Gigaseals were formed with pipettes (Garner Glass type 7052, ID 1.1, OD 1.5) having a resistance of 3-5 MΩ in standard pipette solution. Whole-cell voltage clamp was performed at a holding potential of −60 mV with a 200 ms voltage ramp from −120 mV to +80 mV at 3.6 Hz. Data were acquired using Pulse-Pulsefit (HEKA GmbH) software. Recordings were filtered at 5 kHz and sampled at 20 kHz. Pipette solution for neuronal experiments contained (in mM) 140 CsCl, 1 EGTA, 0.6 MgCl2, 10 HEPES, pH 7.4 (adjusted with CsOH). Standard Ca^2+-free bath solution for whole-cell recordings contained (in mM) 140 NaCl, 4 KCl, 2 MgCl2, 100 nM TTX (Sigma), 10 TRIS, pH 7.4 (adjusted with HCl) with or without 100 nM dendrotoxin I (Sigma). For ion replacement experiments, pipette solution contained (in mM) 140 KCl, 5 CsCl, 1 EGTA, 0.6 MgCl2, 1 4-aminopyridine, 10 HEPES, pH 7.4 (adjusted with KOH). Bath solution contained (in mM) 140 NaCl, 4 KCl, 2 MgCl2, 100 nM TTX, 100 nM dendrotoxin I, 100 nM apamine (Sigma), 100 nM carybdotoxin (Sigma), 1 μω-conotoxin MVIIC, 1 μM GVIA (Latoxan), 10 TRIS, pH 7.4 (adjusted with HCl). For monovalent cation permeability experiments perfusate contained (in mM) 140 NaCl (or 140 KCl or 140 NMDG), 100 nM TTX, 1 μM nitrendipine (Sigma), 10 HEPES, 10 glucose, pH 7.4 (adjusted with NaOH, KOH or HCl, respectively). For divalent cation permeability experiments perfusate contained (in mM) 125 NMDG, 10 CaCl2, 100 nM TTX, 1 μM nitrendipine, 10 HEPES, 10 glucose, pH 7.4 (adjusted with HCl). […] Bath solution for on-cell single channel experiments contained (in mM): 150 NaCl, 1 MgCl2, 10 TRIS. Pipette solution for on-cell single channel experiments contained (in mM): 150 NaCl, 1 MgCl2, 0.1 EGTA, 10 TRIS and 5 or 25 μM menthol. Recordings were performed at 22° C. unless noted otherwise. Temperature ramps were generated by cooling or heating the perfusate in a jacketed coil (Harvard Inst.) connected to a thermostat. Temperature in the proximity of the patched cell was measured using a miniature thermocouple (type MT-29/2, Physitemp) and sampled using an ITC-18 A/D board (Instrutech) and Pulse software. Permeability ratios for monovalent cations to Na (PX/PNa) were calculated according to: PX/PNa=exp(ΔErev(Na-X)F/RT), where ΔErev(Na-X) equals the reversal potential change, F the Faraday's constant, R the universal gas constant and T the absolute temperature. For measurements of Ca^2+ permeability PCa/PNa was calculated according to Lewis, C. A. J. Physiol. 286:417-45, 1979, (equation A6).

CMR1 [2] = biological target: T1, CMR1; experiment: Two-electrode voltage-clamp of Xenopus oocytes expressing the cloned cold/menthol receptor; type: cell-based; parameters: open reading frame of 3312 bp that is predicted to encode a protein of 1104 amino acids; expressed in transfected cells; host or cells: Xenopus laevis oocytes (cRNA injection); conditions: for electrophysiological response of receptor-expressing oocytes: menthone, camphor, cyclohexanol applied near limits of solubility (>500 μM); for EC50: room temperature, voltage clamp at -60 mV
Protocol: cRNA transcripts were synthesized and injected into Xenopus laevis oocytes as described (Brake, supra). Two-electrode voltage-clamp recordings were performed 2-7 days post-injection. Dose-response curves for cooling compounds were performed at room temperature (22-24° C.). AG-3-5 (icilin) was provided by Dr. E. Wei, University of California, Berkeley. Temperature ramps were generated by heating (˜35° C.) or cooling (˜4° C.) the perfusate in a Harvard coil and monitoring temperature changes with a thermister placed near the oocyte.

trigeminal neurons [3] = experiment: Whole-cell patch-clamp recordings of dissociated trigeminal neurons; type: cell-based, rat; conditions: for membrane currents elicited in trigeminal neurons: compared to an equivalent dose of menthol
Protocol: Trigeminal ganglia were removed from newborn S/D rats, placed in ice-cold culture medium (MEM Eagle's with Earle's BSS supplemented with 10% horse serum, vitamins, penicillin/streptomycin and L-glutamine), cleaned of connective tissue/blood vessels and diced into 4-5 pieces. Ganglia were then transferred to 0.125% collagenase P (Boehringer) solution in CMF Hank's, shaken gently at 37° C. for 20 (P0 animals) to 30 min (P4 animals), pelleted, and resuspended in 0.05% STV at 37° C. for 2 min. Culture medium was added to inhibit enzymatic activity and ganglia were triturated gently with a fire-polished Pasteur pipette. Neurons were enriched by density gradient centrifugation as described (see, e.g., Eckert et al., J. Neurosci. Methods 77:183-90, 1997). Cells were resuspended in complete culture medium (MEM Eagle's/Earle's BSS with 10% horse serum, vitamins, penicillin/streptomycin, L-glutamine and 100 ng/ml NGF 7S (Invitrogen) and plated onto glass coverslips coated with PLO (1 mg/ml, Sigma) and laminin (5 μg/ml, Invitrogen). Cultures were maintained at 37° C. in 5% CO2 and examined 1-2 days after plating. Ca^2+ microfluorimetry was carried out as described (Caterina et al., Nature 389:816-24 (1997)). For cell selection prior to patch-clamp analysis, CaCl2 and pluronic acid were omitted from the loading buffer (nominally Ca^2+-free CIB). Cells in the recording chamber were perfused by gravity using the VC-6 valve control system (Warner Inst.).
Trigeminal neurons responding to […] menthol with an increase in intracellular Ca2+ were selected for patch-clamp recordings. HEK293 cells were cultured in DMEM with 10% fetal bovine serum and co-transfected (Lipofectamine 2000, Invitrogen) with 1 μg CMR1 plasmid and 0.1 μg enhanced green fluorescence reporter plasmid to identify transfected cells. Cells were plated onto PLO-coated coverslips the next day and examined two days after transfection. Gigaseals were formed with pipettes (Garner Glass type 7052, ID 1.1, OD 1.5) having a resistance of 3-5 MΩ in standard pipette solution. Whole-cell voltage clamp was performed at a holding potential of −60 mV with a 200 ms voltage ramp from −120 mV to +80 mV at 3.6 Hz. Data were acquired using Pulse-Pulsefit (HEKA GmbH) software. Recordings were filtered at 5 kHz and sampled at 20 kHz. Pipette solution for neuronal experiments contained (in mM) 140 CsCl, 1 EGTA, 0.6 MgCl2, 10 HEPES, pH 7.4 (adjusted with CsOH). Standard Ca^2+-free bath solution for whole-cell recordings contained (in mM) 140 NaCl, 4 KCl, 2 MgCl2, 100 nM TTX (Sigma), 10 TRIS, pH 7.4 (adjusted with HCl) with or without 100 nM dendrotoxin I (Sigma). For ion replacement experiments, pipette solution contained (in mM) 140 KCl, 5 CsCl, 1 EGTA, 0.6 MgCl2, 1 4-aminopyridine, 10 HEPES, pH 7.4 (adjusted with KOH). Bath solution contained (in mM) 140 NaCl, 4 KCl, 2 MgCl2, 100 nM TTX, 100 nM dendrotoxin I, 100 nM apamine (Sigma), 100 nM carybdotoxin (Sigma), 1 μω-conotoxin MVIIC, 1 μM GVIA (Latoxan), 10 TRIS, pH 7.4 (adjusted with HCl). For monovalent cation permeability experiments perfusate contained (in mM) 140 NaCl (or 140 KCl or 140 NMDG), 100 nM TTX, 1 μM nitrendipine (Sigma), 10 HEPES, 10 glucose, pH 7.4 (adjusted with NaOH, KOH or HCl, respectively). For divalent cation permeability experiments perfusate contained (in mM) 125 NMDG, 10 CaCl2, 100 nM TTX, 1 μM nitrendipine, 10 HEPES, 10 glucose, pH 7.4 (adjusted with HCl). […]

trigeminal neurons [4] = experiment: Calcium imaging (Fura-2) of dissociated trigeminal neurons; type: cell-based, rat; conditions: capsaicin 1 μM
Protocol: Trigeminal ganglia were removed from newborn S/D rats, placed in ice-cold culture medium (MEM Eagle's with Earle's BSS supplemented with 10% horse serum, vitamins, penicillin/streptomycin and L-glutamine), cleaned of connective tissue/blood vessels and diced into 4-5 pieces. Ganglia were then transferred to 0.125% collagenase P (Boehringer) solution in CMF Hank's, shaken gently at 37° C. for 20 (P0 animals) to 30 min (P4 animals), pelleted, and resuspended in 0.05% STV at 37° C. for 2 min. Culture medium was added to inhibit enzymatic activity and ganglia were triturated gently with a fire-polished Pasteur pipette. Neurons were enriched by density gradient centrifugation as described (see, e.g., Eckert et al., J. Neurosci. Methods 77:183-90, 1997). […]

[5] = normalized to 500 μM menthol, read-out: EC50 of evoked membrane currents

T1 sequence (Q8R455 whole entry N449H): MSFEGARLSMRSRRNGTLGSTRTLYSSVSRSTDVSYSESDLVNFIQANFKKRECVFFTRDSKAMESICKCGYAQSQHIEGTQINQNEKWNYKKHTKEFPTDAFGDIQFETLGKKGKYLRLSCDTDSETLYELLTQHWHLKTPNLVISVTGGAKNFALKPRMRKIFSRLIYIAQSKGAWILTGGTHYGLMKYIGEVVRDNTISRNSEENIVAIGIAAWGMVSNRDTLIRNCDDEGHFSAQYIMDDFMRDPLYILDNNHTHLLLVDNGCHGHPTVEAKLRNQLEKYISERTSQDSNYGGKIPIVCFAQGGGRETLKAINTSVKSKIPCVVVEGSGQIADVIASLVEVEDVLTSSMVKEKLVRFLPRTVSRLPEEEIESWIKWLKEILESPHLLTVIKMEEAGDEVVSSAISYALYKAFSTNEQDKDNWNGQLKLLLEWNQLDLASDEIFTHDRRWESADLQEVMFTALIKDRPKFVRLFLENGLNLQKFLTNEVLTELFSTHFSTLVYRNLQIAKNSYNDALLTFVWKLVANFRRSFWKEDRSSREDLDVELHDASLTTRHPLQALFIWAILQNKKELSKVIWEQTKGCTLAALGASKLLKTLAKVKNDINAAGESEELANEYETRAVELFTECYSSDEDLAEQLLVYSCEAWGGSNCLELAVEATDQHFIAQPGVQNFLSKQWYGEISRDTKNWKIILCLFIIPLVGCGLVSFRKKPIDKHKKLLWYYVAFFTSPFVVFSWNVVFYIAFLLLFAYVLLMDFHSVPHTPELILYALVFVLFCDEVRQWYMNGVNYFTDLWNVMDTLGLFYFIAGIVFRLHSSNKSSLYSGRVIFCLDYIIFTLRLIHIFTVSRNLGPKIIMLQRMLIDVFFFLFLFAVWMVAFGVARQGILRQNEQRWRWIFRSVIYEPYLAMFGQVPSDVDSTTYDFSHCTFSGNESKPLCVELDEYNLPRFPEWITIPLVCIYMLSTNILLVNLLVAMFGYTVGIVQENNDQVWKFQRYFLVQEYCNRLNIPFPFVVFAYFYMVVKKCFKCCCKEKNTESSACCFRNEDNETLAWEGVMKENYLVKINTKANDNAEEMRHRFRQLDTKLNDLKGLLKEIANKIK

Compound: OC1CCCCC1 [cyclohexanol]
membrane currents elicited in trigeminal neurons (trigeminal neurons [3]): no effect

Compound: CC12CCC(CC1)C(C)(C)O2 [Eucalyptol]
EC50 (CMR1 [2]; read-out: potency (EC50) of evoked membrane currents): 3400 ± 400 µM

Compound: CC(C)[C@@H]1CC[C@@H](C)CC1=O [menthone]
membrane currents elicited in trigeminal neurons (trigeminal neurons [3]): very small currents

Compound: CC12CCC(CC1=O)C2(C)C (stereo not shown) [camphor]
electrophysiological response of receptor-expressing oocytes (CMR1 [2]): little or no effect

Compound: CC1CCC(C(C)C)C(O)C1 (stereo not shown) [menthol]
thermal threshold of cold-evoked currents in the presence of the compound (trigeminal neurons [3]; 10 μM menthol, threshold without menthol 27.1±0.5° C., n=4): 29.6±0.3 °C
EC50 (trigeminal neurons [3]; Rattus norvegicus, Neuron, room temperature, Vhold=-60 mV, currents normalized to 1 mM menthol, read-out: half-maximal effective concentration (EC50) of evoked inward currents): 80 ± 2.4 µM
Hill coefficient (η) (trigeminal neurons [3]; fit of concentration-response data to the Hill equation): 2.2
desensitization: decrease in peak current between first and second application (CMR1 [1]; 2.5 mM extracellular Ca2+, n=3): 53.9±1.7%
desensitization: decrease in peak current between first and second application (CMR1 [1]; nominally calcium-free bath solution, n=3): 9.1±7%
effect on cold-evoked currents (CMR1 [1]; sub-activating dose 10 μM menthol): markedly potentiated
electrophysiological response of receptor-expressing oocytes (CMR1 [2]): Robust responses
EC50 (CMR1 [2]; [5]): 66.7 ± 3.3 µM
saturation temperature of cold-activated currents in the presence of the compound (CMR1 [2]; sub-activating menthol (20 mM printed), without menthol 8.2±0.3° C., n=7): 15.6±0.4 °C
threshold temperature of cold-activated currents in the presence of the compound (CMR1 [2]; sub-activating menthol (20 mM printed), without menthol 25.8±0.4° C., n=7): 29.7±0.3 °C

Now from value to compound, other results behind:

activity in the absence of extracellular calcium (CMR1 [1]; no extracellular calcium): essentially inactive
efficacy compared to menthol (CMR1 [2]): ~2.5 fold
electrophysiological response of receptor-expressing oocytes (CMR1 [2]): Robust responses
potency relative to menthol (CMR1 [2]; ratio of EC50 values): ~200 fold
EC50 (CMR1 [2]; [5]): 0.36 ± 0.03 µM
Compound: O=C1NC(c2cccc([N+](=O)[O-])c2)=CCN1c1ccccc1O [icilin]
desensitization of evoked currents relative to peak currents (CMR1 [1]; 20 s after application, n=3): 78.8±17%

electrophysiological response of receptor-expressing oocytes (CMR1 [2]): did not elicit responses
Compound: COc1cc(CNC(=O)CCCC/C=C/C(C)C)ccc1O [capsaicin]
fraction of menthol/cold-sensitive neurons also activated (trigeminal neurons [4]): 54.5±6.1%
